The target in one experiment is T1, IL-8 (Homo sapiens, UniProt P10145).
T1 sequence (P10145 21-99): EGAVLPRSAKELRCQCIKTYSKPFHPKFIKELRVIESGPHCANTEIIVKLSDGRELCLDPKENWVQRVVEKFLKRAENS
Nature of the experiment: BLI binding assay, biotinylated compounds on streptavidin biosensors, IL-8. The note with it: Table 2, read-out: K D IL-8. Here is the method:
(§1) Cytokines and growth factors are important proteins modulating cellular functions, many of which are known to interact with HS.[1,8,34,67] To probe the impacts of the glycan and the core peptide, the binding of glycopeptide 1, pentasaccharide 30, and peptide 31 to several representative growth factors and cytokines including fibroblast growth factor 2 (FGF-2), interleukin 8 (IL-8) and chemokine (C–C motif ligand 13 (CCL-13)) respectively was tested using the biolayer interferometry (BLI). The biotinylated glycopeptide 1, pentasaccharide 30, and peptide 31 were immobilized on streptavidin coated biosensors, and their dissociation constants (KD) with the proteins were measured (Table 2). […]
(§2) General procedure for biotinylation
(§3) To a solution of free amine compounds in DMSO/H 2O (1/1, 0.5 ml) was added […]
(§4) The reaction was stirred at room temperature for 5 hours. Then the mixture was loaded onto a G-15 Sephadex column for purification. […] General procedure for BLI binding assay
(§5) The binding assay was performed on the Octet K2 System (Pall ForteBio). The biotinylated […]
(§6) compounds were absorbed to streptavidin (SA) sensor for 2 min. The sensor was then balanced in the assay buffer (PBS containing 0.005% P20) and dipped into protein solution in assay buffer at different concentration. After 5 min of association, the sensor was brought back to the previous assay

The next experiment has as its target T2, heparanase (Homo sapiens, UniProt Q9Y251).
T2 sequence (Q9Y251 158-543 limits assumed): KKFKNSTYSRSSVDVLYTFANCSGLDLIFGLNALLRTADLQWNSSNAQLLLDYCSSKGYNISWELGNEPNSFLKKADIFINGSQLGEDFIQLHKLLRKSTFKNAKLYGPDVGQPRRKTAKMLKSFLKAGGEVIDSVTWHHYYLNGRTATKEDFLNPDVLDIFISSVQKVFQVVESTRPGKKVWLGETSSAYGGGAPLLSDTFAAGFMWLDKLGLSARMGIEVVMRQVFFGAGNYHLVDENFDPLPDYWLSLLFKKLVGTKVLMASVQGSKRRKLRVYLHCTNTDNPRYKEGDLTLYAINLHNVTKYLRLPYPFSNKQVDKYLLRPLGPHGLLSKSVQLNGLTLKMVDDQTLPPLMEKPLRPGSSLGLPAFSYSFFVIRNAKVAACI
T2 sequence (Q9Y251 36-109 limits assumed): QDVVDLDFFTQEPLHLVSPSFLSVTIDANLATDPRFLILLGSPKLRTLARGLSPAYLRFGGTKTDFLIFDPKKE
Nature of the experiment: Fondaparinux colorimetric heparanase assay. The class given is biochemical. The settings on record: for inhibition at 3.3 µM: 3.3 μM compound; for inhibition at 3.3 µM / inhibition at 10 µM / inhibition at 33 µM: heparanase 5 nM; for inhibition at 10 µM: 10 μM compound; for inhibition at 33 µM: 33 μM compound. The source says: With the synthetic glycopeptide and the corresponding peptide and glycan in hand, we began to probe the impacts of glycan and peptide on biological functions of the glycopeptide. The endoglycosidase heparanase is an important enzyme for HS metabolism, which can cleave HS polysaccharide chains at the cell surface or in the extracellular matrix.[63] Heparanase activities are important for a variety of biological processes, including tumor metastasis and cell proliferation.[64] […]
General procedure for heparanase assays
Fondaparinux colorimetric heparanase assays were carried out in 96 well microplates (NEST Scientific 96 Well Cell Culture Plate, 701002) pre-treated with a solution of 4% BSA in phosphate-buffered saline containing 0.05% Tween 20 (PBST) for 2 h at 37 °C. A ssay solutions (100 ul) contained sodium acetate buffer (40 mM, pH 5.0) and fondaparinux ([…], MedChemExpress), heparanase (5 nM) and varying concentrations of compounds of interests or heparin. The mixture was kept at 37 °C for 20 h, which was followed by addition of a solution of WST-1 (100 μL of 1.69 mM WST-1 in 0.1 M NaOH) and incubation at 60 °C for 1 h after which the absorbance at 584 nm was measured (Fluostar Optima plate reader, BMG Labtech). […]

A further experiment has as its target CCL-13 (Homo sapiens, UniProt Q99616). Nature of the experiment: BLI binding assay, biotinylated compounds on streptavidin biosensors, CCL-13. Further details: key to K D CCL-13: Inactive denotes a KD value greater than 400 μM. The settings on record: for Kd: Table 2, read-out: K D CCL-13. Here is the method: as §1, §2, §3, §4, §5, §6
A general note: Biolayer interferometry detects binding as a change in optical thickness at a sensor tip.

A further experiment deals with FGF-2 (Homo sapiens, UniProt P09038). Nature of the experiment: BLI binding assay, biotinylated compounds on streptavidin biosensors, FGF-2. As for the experimental part: as §1, §2
To a solution of free amine compounds in DMSO/H 2O (1/1, 0.5 ml) was added sulfo-NHS-LC-Biotin (5 equiv) and DIPEA (pH ~ 8.5). The reaction was stirred at room temperature for 5 hours. Then the mixture was loaded onto a G-15 Sephadex column for purification. […] General procedure for BLI binding assay
as §5
compounds were absorbed to streptavidin (SA) sensor for 2 min. The sensor was then balanced in the assay buffer (PBS containing 0.005% P20) and dipped into protein solution in assay buffer at different concentration. After 5 min of association, the sensor was brought back to the previous assay buffer for a 5 min dissociation step. At the end of the assay, the sensor was regenerated in 2 M NaCl to remove the bound protein. Each measurement was repeated 3 times on the same sensor. The control assay was done with another sensor loaded with saturated biotin solution. […]
MD trajectories were generated from the protein system without any ligand to relax the structure and minimize the pocket restrictions caused by the present ligand in the structure.
The geometries of compounds 2, 28 and 29 were optimized using the Gaussian 16 program package. The optimizations were performed using the AM1 method.1 The obtained Mulliken charges were used with the antechamber module of Amber 16 in the generation of parameters. The systems were prepared using the Leap module of AmberTools162 under the AMBER ff14SB and GAFF force fields. Each enzyme complex was solvated in a 14 Å cube of TIP4P-Ew water beyond the solute and 100 mM sodium chloride. The systems were relaxed under NVT conditions over six minimization procedures with decreasing restraints on the protein of 500.0, 200.0, 20.0, 10.0, 5.0 kcal/(mol Å2) to no restraints. The systems were then heated to 300 K over 30 ps. Atomistic molecular dynamics simulations were performed for 30 ns at 300 K and 1 atm using AMBER 16. The SHAKE algorithm constrained bonds involving hydrogen. 3 The trajectories were produced using Langevin dynamics and the pressure of the system was regulated with isotropic position scaling. Long -range electrostatic effects were modeled using the particle-mesh Ewald method with a 10 Å cutoff.
The produced trajectories were analyzed using AMBER 16 and visualized with MOE and the UCSF Chimera package. Free energy of binding was calculated for every picosecond using the Poisson Boltzmann model form the MMPBSA.py module of AmberTools and AMBER 16. The relative free energy trends between models were compared so solute entropy was neglected.
Following the general procedure for solid-phase peptide synthesis, peptide 29 was obtained in 52% […]
RP-HPLC retention time, tR = 24.4 min.
Following the general procedure for biotinylation, peptide 31 was obtained from 12-mer peptide 29 in 56% yield. The overall yield based on resin loading is 29%. HRMS: C65H103N15O28S [M - 2H]2- […]
Figure S1: Binding of synthetic compounds 1, 31 and 30 to protein FGF2 as measured by BLI (a-c respectively). The biotinylated compounds (2 μM ) were immobilized on streptavidin coated biosensors, and FGF2 was captured on biosensors with six concentrations at 291 nM, 145 nM, […], 39 nM, 20 nM, 10 nM. Fitting curves were shown in red lines. […]

Setting [1] is: BLI, Table 2, read-out: K D FGF2.
Where [2] appears, read: Table S2, KD values from BLI measurements, read-out: Experimental KD.

The structures appear in SMILES notation. Read-outs that look alike come from different tables or passages of the source. Residues, ends and D or L forms follow the SMILES beside them. *: point of attachment. X1 = O=C(O)[C@H]1O[C@@H](O[C@H]2[C@@H](O)[C@@H](CO)O[C@@H](O[C@H]3[C@@H](O)[C@@H](CO)O[C@@H](O[C@@H]4CO[C@@H](*)[C@H](O)[C@H]4O)[C@@H]3O)[C@@H]2O)[C@H](O)[C@@H](O)[C@@H]1O[C@H]1O[C@H](COS(=O)(=O)O)[C@@H](O)[C@H](O)[C@H]1NS(=O)(=O)O; Biotin = O=C1N[C@H]2[C@H](CS[C@H]2CCCCC(=O)*)N1; Ahx = NCCCCCC(=O)O A value given as a limit tells only on which side of the number the result lay.

Chain of FGF-2 (P09038 143-288, species assumed): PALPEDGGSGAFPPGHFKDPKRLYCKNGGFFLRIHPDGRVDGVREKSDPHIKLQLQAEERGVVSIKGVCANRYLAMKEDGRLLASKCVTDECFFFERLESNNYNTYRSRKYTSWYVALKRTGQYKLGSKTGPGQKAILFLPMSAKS
Chain of CCL-13 (Q99616 17-98, species assumed): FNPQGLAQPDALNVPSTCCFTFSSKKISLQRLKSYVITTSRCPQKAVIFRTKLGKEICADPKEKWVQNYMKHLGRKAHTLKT

What is called inhibition is the share of the control response that was lost under treatment. Regarding `CC(C)C[C@H](NC(=O)CCCCCNC(=O)CCCC[C@@H]1SC[C@@H]2NC(=O)N[C@@H]21)C(=O)N[C@@H](CO)C(=O)NCC(=O)N[C@@H](CO[C@@H]1OC[C@@H](O[C@@H]2O[C@H](CO)[C@H](O)[C@H](O[C@@H]3O[C@H](CO)[C@H](O)[C@H](O[C@@H]4O[C@H](C(=O)O)[C@@H](O[C@H]5O[C@H](COS(=O)(=O)O)[C@@H](O)[C@H](O)[C@H]5NS(=O)(=O)O)[C@H](O)[C@H]4O)[C@H]3O)[C@H]2O)[C@H](O)[C@H]1O)C(=O)NCC(=O)N[C@@H](CC(=O)O)C(=O)N[C@@H](CC(C)C)C(=O)N[C@@H](CC(=O)O)C(=O)N[C@@H](CC(=O)O)C(=O)N[C@@H](CC(C)C)C(=O)N[C@@H](CCC(=O)O)C(=O)N[C@@H](CC(=O)O)C(=O)O` [Compound 1] ({Biotin-Ahx}-LSGS(X1)GDLDDLED-OH), the Kd on IL-8 stood at 28 nM. On heparanase, the inhibition at 3.3 µM was less than 0%, the inhibition at 10 µM is less than 0%, the inhibition at 33 µM was less than 0% and the “inhibition of heparanase at concentrations up to 100 μM” value is listed as “neither peptide 31 nor glycopeptide 1 were able to inhibit heparanase”. Also, at CCL-13, the Kd was 498 nM. For the same compound, the Kd at FGF-2 (setting [1]) worked out at 5 nM. Besides, the “FGF-2 binding, fold higher than pentasaccharide 30 and peptide 31” value at FGF-2 (ratio of KD values) was “about 3 fold”.
In the case of `NCCCO[C@@H]1OC[C@@H](O[C@@H]2O[C@H](CO)[C@H](O)[C@H](O[C@@H]3O[C@H](CO)[C@H](O)[C@H](O[C@@H]4O[C@H](C(=O)O)[C@@H](O[C@H]5O[C@H](COS(=O)(=O)O)[C@@H](O)[C@H](O)[C@H]5NS(=O)(=O)O)[C@H](O)[C@H]4O)[C@H]3O)[C@H]2O)[C@H](O)[C@H]1O` [Compound 28], the Kd on FGF-2 (setting [2]) stood at 14.5 nM.
The same measure, in the same setting: the result for `CC(C)C[C@H](NC(=O)[C@H](CC(=O)O)NC(=O)CNC(=O)[C@H](CO)NC(=O)CNC(=O)[C@H](CO)NC(=O)[C@@H](N)CC(C)C)C(=O)N[C@@H](CC(=O)O)C(=O)N[C@@H](CC(=O)O)C(=O)N[C@@H](CC(C)C)C(=O)N[C@@H](CCC(=O)O)C(=O)N[C@@H](CC(=O)O)C(=O)O` [Compound 29] (H-LSGSGDLDDLED-OH) reads 17 nM.
As to `O=C(CCCCC1SCC2NC(=O)NC21)NCCCCCC(=O)NCCCOC1OCC(OC2OC(CO)C(O)C(OC3OC(CO)C(O)C(OC4OC(C(=O)O)C(OC5OC(COS(=O)(=O)O)C(O)C(O)C5NS(=O)(=O)O)C(O)C4O)C3O)C2O)C(O)C1O` (stereo not drawn) [Compound 30], at IL-8, the Kd is 39 nM. Also, on heparanase, the inhibition at 3.3 µM is less than 0%, the inhibition at 10 µM stood at 32% and 33 µM produced 61% inhibition. The “KD with CCL-13” value at CCL-13 is given as “did not exhibit much binding”. Also, the “K D CCL-13” value at CCL-13 (Table 2) is reported as “Inactive”. The Kd on FGF-2 (setting [1]) came out at 14.5 nM.
Consider `CC(C)C[C@H](NC(=O)CCCCCNC(=O)CCCC[C@@H]1SC[C@@H]2NC(=O)N[C@@H]21)C(=O)N[C@@H](CO)C(=O)NCC(=O)N[C@@H](CO)C(=O)NCC(=O)N[C@@H](CC(=O)O)C(=O)N[C@@H](CC(C)C)C(=O)N[C@@H](CC(=O)O)C(=O)N[C@@H](CC(=O)O)C(=O)N[C@@H](CC(C)C)C(=O)N[C@@H](CCC(=O)O)C(=O)N[C@@H](CC(=O)O)C(=O)O` [Compound 31] ({Biotin-Ahx}-LSGSGDLDDLED-OH; N-terminus and C-terminus assumed), for which the Kd at IL-8 amounted to 75 nM. Moreover, at heparanase, the inhibition at 3.3 µM is less than 0%, the inhibition at 10 µM is less than 0%, the inhibition at 33 µM was less than 0% and the “inhibition of heparanase at concentrations up to 100 μM” value is recorded as “neither peptide 31 nor glycopeptide 1 were able to inhibit heparanase”. For the same compound, the Kd on CCL-13 was 92 nM. The Kd at FGF-2 (setting [1]) came out at 17 nM.

Source of the values: article PMC8159385, “Chemical synthesis of human syndecan-4 glycopeptide bearing O-, N-sulfation and multiple aspartic acids for probing impacts of the glycan chain and the core peptide on biological functions” (Chemical Science, 2020).
